In ChEMBL document CHEMBL1201862, “PubChem BioAssay data set” (2004):
Counter-ions that a name gives are not always drawn. The source made the active and inactive calls.

Legend:
[1] = molecular target: T1, Neuropeptides B/W receptor type 1 (Homo sapiens, UniProt P48145); assay: Fluorescence-based dose response cell-based high throughput screening assay to identify antagonists of the G-protein coupled receptor 7 (GPR7). [Related pubchem assays: 1952 (Screening assay (GPR7 antagonists).), 1880 (Summary AID.)]; format: functional
T1 sequence (P48145 whole entry): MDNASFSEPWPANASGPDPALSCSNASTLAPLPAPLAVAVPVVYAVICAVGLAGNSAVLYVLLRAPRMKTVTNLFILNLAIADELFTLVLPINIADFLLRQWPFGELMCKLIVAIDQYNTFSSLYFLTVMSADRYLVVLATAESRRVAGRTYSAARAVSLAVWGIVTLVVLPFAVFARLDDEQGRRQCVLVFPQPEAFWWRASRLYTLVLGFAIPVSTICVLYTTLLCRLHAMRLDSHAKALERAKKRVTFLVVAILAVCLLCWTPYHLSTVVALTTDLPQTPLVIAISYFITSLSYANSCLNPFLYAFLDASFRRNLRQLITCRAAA

[2] = molecular target: Melanin-concentrating hormone receptor 1 (Homo sapiens, UniProt Q99705); assay: Fluorescence-based counterscreen for antagonists of the G-protein coupled receptor 7 (GPR7): cell-based high throughput dose response assay to identify antagonists of the melanin-concentrating hormone receptor 1 (MCHR1).; format: functional
Melanin-concentrating hormone receptor 1, sequence (Q99705 whole entry): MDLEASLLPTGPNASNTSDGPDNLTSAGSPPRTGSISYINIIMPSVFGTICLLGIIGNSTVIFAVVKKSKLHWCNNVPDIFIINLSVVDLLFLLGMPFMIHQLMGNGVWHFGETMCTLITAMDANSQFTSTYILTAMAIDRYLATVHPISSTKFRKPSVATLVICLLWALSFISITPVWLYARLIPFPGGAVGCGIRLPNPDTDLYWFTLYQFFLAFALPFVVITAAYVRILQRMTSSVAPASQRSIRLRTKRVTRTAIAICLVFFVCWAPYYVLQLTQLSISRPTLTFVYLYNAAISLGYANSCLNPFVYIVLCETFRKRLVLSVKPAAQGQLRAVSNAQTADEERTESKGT

Procathepsin L = Procathepsin L (Homo sapiens, UniProt P07711)
Procathepsin L, sequence (P07711 whole entry): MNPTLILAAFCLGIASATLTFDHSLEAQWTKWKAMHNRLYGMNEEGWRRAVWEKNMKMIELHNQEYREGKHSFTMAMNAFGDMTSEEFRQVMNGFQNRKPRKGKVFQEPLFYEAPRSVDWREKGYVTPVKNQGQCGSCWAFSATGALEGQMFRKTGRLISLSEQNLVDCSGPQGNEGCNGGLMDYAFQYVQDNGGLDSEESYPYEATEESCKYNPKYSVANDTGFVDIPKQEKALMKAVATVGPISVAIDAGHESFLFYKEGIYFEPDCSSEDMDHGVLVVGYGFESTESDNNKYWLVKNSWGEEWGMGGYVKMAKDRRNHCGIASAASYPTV

[3] = molecular target: Induced myeloid leukemia cell differentiation protein Mcl-1 (Homo sapiens, UniProt Q07820); format: functional
Induced myeloid leukemia cell differentiation protein Mcl-1, sequence (Q07820 whole entry): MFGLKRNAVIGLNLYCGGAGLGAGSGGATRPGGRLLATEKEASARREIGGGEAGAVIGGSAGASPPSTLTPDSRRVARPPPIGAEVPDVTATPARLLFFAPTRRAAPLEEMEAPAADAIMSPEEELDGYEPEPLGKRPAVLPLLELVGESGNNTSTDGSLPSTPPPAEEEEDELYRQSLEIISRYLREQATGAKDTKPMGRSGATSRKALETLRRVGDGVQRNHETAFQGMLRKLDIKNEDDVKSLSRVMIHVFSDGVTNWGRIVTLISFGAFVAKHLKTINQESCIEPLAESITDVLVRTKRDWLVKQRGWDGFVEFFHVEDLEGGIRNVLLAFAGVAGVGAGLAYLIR

Aspartyl aminopeptidase = molecular target: T2, Aspartyl aminopeptidase (Plasmodium falciparum 3D7, UniProt Q8I2J3)
T2 sequence (Q8I2J3 whole entry): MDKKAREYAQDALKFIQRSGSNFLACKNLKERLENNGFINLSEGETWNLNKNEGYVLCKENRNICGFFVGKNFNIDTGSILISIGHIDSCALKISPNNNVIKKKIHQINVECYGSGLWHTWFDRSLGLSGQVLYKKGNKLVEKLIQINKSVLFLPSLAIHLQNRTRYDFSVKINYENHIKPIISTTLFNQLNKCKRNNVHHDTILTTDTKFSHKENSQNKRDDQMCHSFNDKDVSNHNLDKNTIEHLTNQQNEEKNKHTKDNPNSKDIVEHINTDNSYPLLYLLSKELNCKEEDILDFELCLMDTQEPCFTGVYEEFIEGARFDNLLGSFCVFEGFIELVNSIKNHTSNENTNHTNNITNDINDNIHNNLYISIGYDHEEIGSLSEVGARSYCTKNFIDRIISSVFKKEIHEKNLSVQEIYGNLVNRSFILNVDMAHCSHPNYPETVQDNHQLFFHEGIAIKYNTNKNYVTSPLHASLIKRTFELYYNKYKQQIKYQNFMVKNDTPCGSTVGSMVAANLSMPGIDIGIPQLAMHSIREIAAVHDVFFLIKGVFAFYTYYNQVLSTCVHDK

BJ [4] = assay: cytotoxicity toward Ras-transformed BJeLR fibroblasts, dose response, cell-based, alamar blue fluorescence, cherrypicked samples (AID 2631); format: functional; details: Homo sapiens;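 note: confirmatory dose-response assay in RAS-dependent BJ fibroblasts engineered with TERT, LT and ST, with cytotoxicity read by fluorescence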
BJ [5] = assay: cytotoxicity toward BJ-TERT fibroblasts, dose response, cell-based, RAS-independent, luminescence (AID 1933); format: functional; details: Homo sapiens
BJ [6] = assay: cells; format: functional, cell-based; details: Homo sapiens
[7] = Luminescence Cell-Based Dose Response HTS to Identify Inhibitors of 5'UTR Stem-Loop Driven Prion Protein mRNA Translation in H4 Neuroglioblastoma Cells. [Related pubchem assays: 1827 (Project Summary), 1813 (Primary HTS)]; format: functional
BJ [8] = assay: cytotoxicity toward BJ-TERT-LT-ST fibroblasts, dose response, cell-based, RAS-independent, luminescence (AID 1935); format: functional; details: Homo sapiens;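 note: BJ fibroblasts immortalized with TERT plus LT and ST oncogenes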
[9] = inhibitors of firefly luciferase expression or activity, dose response, H4 neuroglioma cells, luminescence (AID 1990); format: functional, cell-based
[10] = cytotoxicity toward DRD oncogenic fibroblasts, dose response, cell-based, non-viral oncogenic, luminescence (AID 1934); format: functional; details: Homo sapiens
[11] = C. albicans growth with fluconazole, confirmation, fluorescence, retest (AID 2467); format: functional, cell-based
[12] = molecular target: T3, Neuropeptide Y receptor type 1 (Homo sapiens, UniProt P25929); assay: Fluorescence-based counterscreen for agonists of NPY-Y2: cell-based high-throughput dose response assay for agonists of NPY-Y1.; format: functional
T3 sequence (P25929 whole entry): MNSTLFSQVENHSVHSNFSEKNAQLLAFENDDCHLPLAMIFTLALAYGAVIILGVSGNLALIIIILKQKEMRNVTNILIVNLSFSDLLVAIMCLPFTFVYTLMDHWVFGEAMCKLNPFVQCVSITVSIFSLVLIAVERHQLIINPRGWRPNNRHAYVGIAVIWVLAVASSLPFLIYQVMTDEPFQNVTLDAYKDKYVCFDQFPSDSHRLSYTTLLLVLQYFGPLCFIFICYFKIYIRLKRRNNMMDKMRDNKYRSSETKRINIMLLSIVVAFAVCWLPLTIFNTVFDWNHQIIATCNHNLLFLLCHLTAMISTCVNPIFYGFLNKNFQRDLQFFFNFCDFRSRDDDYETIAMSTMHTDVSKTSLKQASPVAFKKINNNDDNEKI

[13] = NIH-3T3 fibroblast cytotoxicity, dose response, cytotoxicity control, cell-based, fluorescence, Alamar Blue, secondary assay (AID 2327); format: functional;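 note: NIH-3T3 mouse fibroblasts cultured with fluconazole at 8 µg/mL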
HEK293 = assay: Fluorescence-based counterscreen for potentiators or agonists of NPY-Y2: cell-based high-throughput dose response assay to identify inhibitors of cyclic nucleotide gated ion channel (CNGC) activity. In this assay, the parental HEK293 cell line transfected with a cyclic-nucleotide gated ion channel (CNGC)-based cAMP sensor is used to measure inhibition of isoproterenol-induced CNGC activity by test compound.; format: functional; details: Homo sapiens;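 note: stimulus is 1 µM isoproterenol at EC100 plus PDE inhibitor Ro 20-1724 at 25 µM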
[14] = cytotoxicity in HEK-293T cells, dose response, cytotoxicity control for TCR NF-kB inhibitor project, luminescence, T-cell screen hits (AID 489026); format: functional, cell-based;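 note: cells exposed to compound about 14 hours before the viability readout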
[15] = molecular target: T4, Neuropeptide Y receptor type 2 (Homo sapiens, UniProt P49146); assay: Fluorescence-based cell-based high-throughput dose response assay for agonists of NPY-Y2. [Related pubchem assays: 1703 (Screening assay (CNGC inhibitors).), 1359 (Screening assay (NPY-Y2 potentiators or agonists).), 1304 (Screening assay (NPY-Y1 potentiators or agonists).), 1710 (Screening assay (NPY-Y2 agonists).), 1791 (Summary AID.)]; format: functional
T4 sequence (P49146 whole entry): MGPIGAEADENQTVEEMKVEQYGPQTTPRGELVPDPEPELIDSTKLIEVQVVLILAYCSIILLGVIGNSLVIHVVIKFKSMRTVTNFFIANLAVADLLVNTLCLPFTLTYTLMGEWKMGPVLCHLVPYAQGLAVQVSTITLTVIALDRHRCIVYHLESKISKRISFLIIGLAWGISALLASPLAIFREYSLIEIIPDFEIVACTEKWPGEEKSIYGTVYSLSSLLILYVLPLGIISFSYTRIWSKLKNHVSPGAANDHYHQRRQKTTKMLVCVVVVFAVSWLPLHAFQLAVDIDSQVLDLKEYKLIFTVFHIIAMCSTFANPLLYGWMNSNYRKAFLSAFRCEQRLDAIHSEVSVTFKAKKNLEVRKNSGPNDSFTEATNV

[16] = A Cell Based Secondary Assay To Explore Cytotoxicity of Compounds that Sensitize Mycobacterium Tuberculosis to Beta-Lactam Antibiotics.; format: functional
HeLa = assay: HeLa cell cytotoxicity, dose response, cytotoxicity control, 24 h, cherry-picked samples (AID 504726); format: functional, cell-based; details: Homo sapiens;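 note: potency for cytotoxicity as loss of luminescence signal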
[17] = LGR2 antagonists, dose response, cell-based, HEK293, CRE-luciferase reporter, cherry pick, set 2 (AID 743343); format: functional;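 note: transfected cells were stimulated with diluted bursicon conditioned medium after compound addition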
[18] = MC4R antagonists, dose response, counter-screen for LGR2 antagonist project, cell-based, plate reader, cherry pick (AID 743444); format: functional;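 note: transfected HEK 293 cells stimulated with alpha-MSH peptide; potency of inhibitors of the alpha-MSH evoked signal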
[19] = molecular target: T5, Polyadenylate-binding protein 1 (Homo sapiens, UniProt P11940); assay: PABP1 MLLE–PAM2 binding inhibitor potency, dose response, biochemical, fluorescence polarization, FITC-PAM2 peptide (AID 602259); format: functional; details: read-out: IC50_Mean
T5 sequence (P11940 whole entry): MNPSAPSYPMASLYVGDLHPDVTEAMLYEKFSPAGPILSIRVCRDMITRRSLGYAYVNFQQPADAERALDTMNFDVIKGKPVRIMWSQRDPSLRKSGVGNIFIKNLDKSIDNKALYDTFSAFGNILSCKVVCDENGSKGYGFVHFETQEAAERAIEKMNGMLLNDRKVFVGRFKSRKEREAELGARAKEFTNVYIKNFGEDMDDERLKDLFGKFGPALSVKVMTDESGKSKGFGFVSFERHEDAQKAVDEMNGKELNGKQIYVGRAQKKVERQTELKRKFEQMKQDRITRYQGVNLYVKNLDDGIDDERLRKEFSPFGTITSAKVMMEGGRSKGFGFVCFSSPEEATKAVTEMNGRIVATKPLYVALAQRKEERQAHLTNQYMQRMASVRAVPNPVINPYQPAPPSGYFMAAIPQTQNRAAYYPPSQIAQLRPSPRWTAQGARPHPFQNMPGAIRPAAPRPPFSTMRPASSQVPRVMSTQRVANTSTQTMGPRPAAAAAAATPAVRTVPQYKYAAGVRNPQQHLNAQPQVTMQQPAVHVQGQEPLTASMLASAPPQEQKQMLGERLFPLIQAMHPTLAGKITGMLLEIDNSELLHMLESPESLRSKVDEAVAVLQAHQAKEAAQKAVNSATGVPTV

Genome polyprotein = Genome polyprotein (dengue virus type 2, UniProt P29990); assay: Dengue-2 NS5 methyltransferase inhibitors, primary screen, biochemical, confirmation dose response (AID 588689); format: functional
Genome polyprotein, sequence (P29990 2492-3391 limits assumed): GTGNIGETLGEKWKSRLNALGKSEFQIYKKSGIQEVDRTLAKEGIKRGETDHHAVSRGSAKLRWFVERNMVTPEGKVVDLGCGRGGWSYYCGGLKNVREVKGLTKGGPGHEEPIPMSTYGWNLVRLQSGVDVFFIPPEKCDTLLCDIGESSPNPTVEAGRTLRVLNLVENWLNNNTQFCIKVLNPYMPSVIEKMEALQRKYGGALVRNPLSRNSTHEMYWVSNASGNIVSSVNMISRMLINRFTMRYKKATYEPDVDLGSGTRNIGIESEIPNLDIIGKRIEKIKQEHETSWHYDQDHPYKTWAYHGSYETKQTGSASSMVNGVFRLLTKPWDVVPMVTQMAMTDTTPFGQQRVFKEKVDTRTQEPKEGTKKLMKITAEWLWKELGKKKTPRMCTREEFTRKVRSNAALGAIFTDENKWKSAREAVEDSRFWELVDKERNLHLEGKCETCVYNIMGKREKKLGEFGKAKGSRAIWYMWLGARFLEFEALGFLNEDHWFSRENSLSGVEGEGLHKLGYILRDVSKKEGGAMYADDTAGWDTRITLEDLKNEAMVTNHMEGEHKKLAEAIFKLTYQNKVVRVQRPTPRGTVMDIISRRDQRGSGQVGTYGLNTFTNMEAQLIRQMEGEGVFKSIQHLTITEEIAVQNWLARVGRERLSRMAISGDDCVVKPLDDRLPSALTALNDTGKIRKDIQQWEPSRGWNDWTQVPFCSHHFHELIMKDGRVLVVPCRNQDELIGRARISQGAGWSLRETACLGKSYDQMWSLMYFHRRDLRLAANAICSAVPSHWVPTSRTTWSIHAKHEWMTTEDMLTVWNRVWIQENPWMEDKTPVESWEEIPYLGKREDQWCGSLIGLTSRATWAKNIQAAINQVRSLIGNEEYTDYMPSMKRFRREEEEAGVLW

[20] = molecular target: T5, Polyadenylate-binding protein 1; assay: PABP1 MLLE–PAM2 interaction inhibitors, dose response, miRNA deadenylation inhibitor project, biochemical, fluorescence polarization, Cy5-PAM2 peptide, secondary (AID 602260); format: functional; details: read-out: IC50_Mean
Vero [21] = assay: Vero cell cytotoxicity, cytotoxicity control for flavivirus capping enzyme inhibitors (AID 588742); format: functional; details: Chlorocebus sabaeus
[22] = growth suppression of PTEN-null colon cells, dose response, cell-based, HCT116 PTEN knockout (AID 1047); format: functional;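 note: HCT116 colon tumor cells with PTEN knocked out; cells exposed to compound for 60 hours before readout; potency for loss of cell viability measured by luminescence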
Large T antigen = Large T antigen (Simian virus 40, UniProt P03070); format: functional, Betapolyomavirus macacae;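 note: Confirmatory-stage PubChem screen for compounds that inhibit SV40 T antigen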
Large T antigen, sequence (P03070 whole entry): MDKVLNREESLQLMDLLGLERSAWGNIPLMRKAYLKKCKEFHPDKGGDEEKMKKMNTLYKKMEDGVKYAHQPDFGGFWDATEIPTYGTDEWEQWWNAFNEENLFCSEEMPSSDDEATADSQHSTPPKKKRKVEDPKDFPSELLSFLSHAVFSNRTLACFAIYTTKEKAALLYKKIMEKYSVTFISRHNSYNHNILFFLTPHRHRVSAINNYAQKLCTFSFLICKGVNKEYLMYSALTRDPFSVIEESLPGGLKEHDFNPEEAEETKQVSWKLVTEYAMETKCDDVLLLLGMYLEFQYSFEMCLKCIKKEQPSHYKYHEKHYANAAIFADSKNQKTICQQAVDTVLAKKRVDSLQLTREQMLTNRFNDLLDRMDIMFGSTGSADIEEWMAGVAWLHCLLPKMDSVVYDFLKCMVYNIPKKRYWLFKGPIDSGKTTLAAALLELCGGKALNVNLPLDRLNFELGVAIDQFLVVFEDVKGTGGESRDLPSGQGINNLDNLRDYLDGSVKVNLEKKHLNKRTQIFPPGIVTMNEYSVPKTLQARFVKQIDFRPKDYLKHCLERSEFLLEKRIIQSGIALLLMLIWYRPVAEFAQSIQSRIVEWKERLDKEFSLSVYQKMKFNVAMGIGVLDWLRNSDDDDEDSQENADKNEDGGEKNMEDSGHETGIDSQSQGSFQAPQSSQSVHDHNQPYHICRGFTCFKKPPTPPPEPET

[23] = growth suppression of beta-catenin-knockout colon cells, dose response, cell-based, HCT116, human colon tumor (AID 1045); format: functional;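 note: HCT116 colon tumor cells with beta catenin knocked out; cells exposed to compound for 60 hours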
Vero [24] = assay: cells; format: functional, cell-based; details: Chlorocebus sabaeus
[25] = HEp-2 cell cytotoxicity, dose response, cytotoxicity control for RSV inhibitor project, HTS (AID 2410); format: functional; details: human respiratory syncytial virus
[26] = molecular target: FAD-linked sulfhydryl oxidase ALR (Homo sapiens, UniProt P55789); assay: inhibitors of human ALR sulfhydryl oxidase, dose response, biochemical, H2O2 detection, luminescence, cherry-pick (AID 493248)
FAD-linked sulfhydryl oxidase ALR, sequence (P55789 whole entry): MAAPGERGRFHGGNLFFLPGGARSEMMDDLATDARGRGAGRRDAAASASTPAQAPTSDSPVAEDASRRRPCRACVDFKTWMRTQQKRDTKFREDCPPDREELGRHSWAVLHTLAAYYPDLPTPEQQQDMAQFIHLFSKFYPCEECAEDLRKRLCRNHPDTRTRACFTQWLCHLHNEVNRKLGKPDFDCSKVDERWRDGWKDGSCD

Compound: CCOC(=O)COc1c(Cl)cc(C2NC(S)=NC(c3ccccc3)=C2C(C)=O)cc1OC (centres undefined)
- IC50 [1]: > 43.8 µM (not active)
- IC50 [2]: > 43.8 µM (not active)

Compound: COc1ccc(C2=CC(=O)C=CC2=O)cc1
- IC50 (Procathepsin L): > 59.6 µM (not active)
- IC50 [3]: 5.43 µM (active)
- IC50 (Aspartyl aminopeptidase): 6.85 µM (active)
- EC50 (BJ [4]): > 133 µM (inactive)

Compound: CN(C)c1ccc(-[n+]2c(-c3ccccc3)cc(-c3ccccc3)cc2-c2ccccc2)cc1.[O-][Cl+3]([O-])([O-])[O-]
- EC50 (BJ [5]): 2.81 µM (active)
- EC50 (BJ [6]): 3.14 µM (active)
- EC50 [7]: > 120 µM (not active)
- EC50 (BJ [8]): 3 µM (inconclusive)
- EC50 [9]: 8.27 µM (active)
- EC50 [10]: 3.14 µM (active)
- EC50 [11]: 0.132 µM (active)
- EC50 [12]: 24.4 µM (not active)
- EC50 [13]: 4.87 µM (active)
- EC50 (HEK293): > 35.4 µM (not active)
- IC50 [14]: 55.4 µM (inactive)
- EC50 [15]: > 35.4 µM (not active)

Compound: O=C(c1ccccc1)N1CCC(CC2CC(c3cccc(Br)c3)=NO2)(C(=O)NCC2CCCCC2)CC1 (centres undefined)
- CC50 [16]: > 40 µM (active)

Compound: Cc1noc(C)c1CSCC(=O)Nc1nc2c(F)cc(F)cc2s1
- AC50 (HeLa): > 350 µM (inactive)

Compound: Cc1ccc(C(=O)n2nc(-n3cccc3)c3c(C)cc(C)nc32)cc1
- AC50 [17]: 13.9 µM (active)
- AC50 [18]: 1.22 µM (active)
- EC50 [12]: > 35.4 µM (not active)
- EC50 (HEK293): > 35.4 µM (not active)
- EC50 [15]: > 35.4 µM (not active)

Compound: COc1cc(C(=S)N2CCN(c3ccccc3Cl)CC2)cc(O)c1O
- IC50 [19]: > 66 µM (inactive)
- EC50 [11]: > 38 µM (not active)
- EC50 [12]: > 35.4 µM (not active)
- EC50 [13]: > 150 µM (inactive)
- EC50 (HEK293): > 35.4 µM (not active)
- IC50 (Genome polyprotein): > 100 µM (active)
- IC50 [20]: > 66 µM (inactive)
- CC50 (Vero [21]): > 40 µM (active)
- EC50 [15]: > 35.4 µM (not active)

Compound: Cc1csc(NC(=O)NC2(C(F)(F)F)Oc3ccccc3O2)n1
- EC50 [22]: 24.8 µM (active)
- IC50 (Procathepsin L): > 59.6 µM (not active)
- IC50 (Large T antigen): 13.3 µM (active)
- EC50 [23]: 21.9 µM (active)
- IC50 (Aspartyl aminopeptidase): 2.02 µM (active)

Compound: Cc1[nH]c(C)c(S(=O)(=O)N2CCN(c3cccc(C(F)(F)F)c3)CC2)c1C(=O)N1CCCCC1
- IC50 (Vero [24]): 22.4 µM (active)
- CC50 [25]: 17.6 µM (active)
- IC50 (cells): 23.3 µM (active)

Compound: CCC(C)(C(=O)NC1CCCCC1)N(Cc1ccco1)C(=O)c1ccc2c(c1)OCO2 (centres undefined)
- IC50 [1]: > 43.8 µM (not active)
- IC50 [2]: > 43.8 µM (not active)

Compound: CCC(=O)NC(=S)Nc1ccc(NC(=O)COc2ccc(Cl)c(C)c2)cc1
- CC50 [25]: > 50 µM (active)
- IC50 (cells): 39 µM (active)

Compound: NCCc1ccc(O)c(O)c1 [DOPAMINE HYDROCHLORIDE]
- IC50 (Procathepsin L): > 59.6 µM (not active)
- IC50 (Aspartyl aminopeptidase): 1.98 µM (active)
- AC50 [26]: 1.42 µM (active)
